Read-outs that look alike come from different tables or passages of the source.
Assays:
Type in all cases: in vivo, human
[1] = system: burns
Experimental: (§1) The method of the invention has been carried out with respect to a number of skin disorders. The patients were treated with one of two peptides, each at a concentration of 50 μg/gr cream (unless otherwise indicated):
(§2) The cream was manufactured by Amiga LTD, Israel, and contains the following components:
1. A person was lightly burned on the back of the hand which touched a very hot object. ZEP4 was immediately applied to the burn site. • Results: the burn mark disappeared within 1 hour. No additional treatments were necessary.
2. A person was severely burned by boiling water on the palm of the hand. […] At the end of 2 weeks there was no sign of the burn, nor thereafter.
3. person two was lightly burned on their finger from boiling oil. […] No further treatments were necessary.
5. A person was burnt on their hand from an oven. […] The burn took on a light brown color.
6. 4 light burn cases, three from touching a hot surface and one from a chemical substance in a laboratory, were treated with ZEP3.
8. person three with irritated skin on the hand due to the rubbing of a watch band. The irritated skin came into contact with a chemical substance (used as a disinfectant). A severe redness developed similar to a burn, and a strong itching feeing. […] D. Oral Cavity

[2] = system: itching; conditions: person
Experimental: as §1, §2
1. A person suffered from a strong itching sensation on the skin all over the body for no apparent reason.
2. A person suffered from a red rash and itching sensation on their breast. ZEP4 (500 μg/gr cream) was applied twice in a period of 2 hours. • Results: relief from itching within 10 minutes.
3. A person suffered from a strong itching sensation in the lower limbs which sometimes spread to the abdomen and back. […] I. Skin Infection

[3] = system: mosquito bites
Experimental: as §1, §2
8. males and four females suffered from mosquito bites. […]
9. 3 subjects suffering from mosquito bites were treated with ZEP3.

[4] = system: vaginal herpes; conditions: female over 40, lesions on outer genital area; 50 μg/gr cream daily
Experimental: as §1, §2
4. A person over 40 suffered from advance vaginal herpes, with numerous lesions on the outer genital area and pronounced itching and swelling.

[5] = system: flea bites
Experimental: as §1, §2
1. person two was bitten by fleas on various occasions, resulting in an itching sensation. […] The ointment was reapplied after 6 hours.
2. person one who is very sensitive to flea bites was bitten by fleas, resulting in an itching sensation. […] The ointment should be reapplied after 12 hours.

[6] = system: Herpes zoster; conditions: person, 50 μg/gr cream
Experimental: as §1, §2
1. A person was diagnosed with Herpes zoster (shingles), which appeared as a painful, circumferential rash in the abdominal area. The patient had been on antibiotics, with no improvement.
2. A person was diagnosed with Herpes zoster, which appeared as painful lesions with skin edema on the mid back area, appearing several times a year. […] Decrease in the skin rash and the degree of the sore and swelling and a shortening of the time of recovery (healing).

[7] = system: bee stings; conditions: both hands stung, 500 μg/gr cream once to the other hand, about 10 minutes after sting
Experimental: as §1, §2
3. A person was stung by a bee.
4. person four was stung by bees on both hands.
5. person three was stung by bees on both hands.

[8] = system: Herpes simplex
Experimental: as §1, §2
5. A person suffered for many years from Herpes simplex on the neck, with no relief from commercial remedies. ZEP3 was applied topically once a day to the lesions. • Results: relief in itching and skin rash within 10-20 min.
6. person two was diagnosed with Herpes simplex.
7. person one was diagnosed with Herpes simplex.
8. person four suffered from Herpes simplex from childhood.
9. A person suffered from Herpes simplex lesions on the lips and face. […] 1-2 applications cause the lesions to disappear.
10. A person suffered from Herpes simplex on the lips, mainly when under pressure. […] The blisters disappeared after 24 hours.
11. A person suffered from Herpes simplex on the lips. ZEP3 (500 μg/gr cream) was topically applied several times during the day on the wound. • Results: the person felt relief after several minutes. The itching and redness lessened immediately and the wound disappeared after 36 hours.
12. 7 subjects suffering from Herpes simplex were treated with ZEP3.
13. A person suffered from Herpes simplex lesions on the lips.
14. A person has a festering Herpes simplex lesion. Generally, 10 days are required for recuperation.
15. A person suffered intermittingly from Herpes simplex on the lips, with blisters.

[9] = system: Varicella; conditions: person, 50 μg/gr cream
Experimental: as §1, §2
3. A person was diagnosed with severe Varicella, which appeared all over the body. The patient had severe itching and skin peeling. No commercial remedy helped. Initially, ZEP3 was topically applied to the hand, with improvement and relief within 24 hours. […] After 10 days, there was no sign of the disease nor were there any future complications.

[10] = system: radiation burns; conditions: person two after mastectomy, severe radiation burns; 500 μg/gr cream several times per day
Experimental: as §1, §2
4. A person with breast cancer received radiation treatment. The person suffered from radiation burns in a large skin area with blisters and open wounds. ZEP4 was applied directly to the wounds over a period of 12 days, 1-2 times per day. • Results: an immediate (˜1 minute) ease in the itching and burning sensation.
7. person two with breast cancer after mastectomy received radiation treatment. The person suffered from severe radiation burns.

[11] = abdominal rash, 2-3 times a day
[12] = person, lesions on lips and face, 50 μg/gr cream
[13] = person, lips, 500 μg/gr cream several times a day
[14] = person, neck, 50 μg/gr cream once a day
[15] = entire body twice a day for two weeks

pGLU-ASN-TRP-LYS-C8 [ZEP3]
clinical outcome ([1]; 4 light burn cases (three hot surface, one chemical substance), 50 μg/gr cream): found to be therapeutic both for the pain and for the healing | clinical outcome ([1]; person three, irritated skin on hand contacted a disinfectant, burn-like redness and itching, ZEP4 and ZEP3 each 500 μg/gr cream): immediate relief from the redness and itching | clinical outcome ([2]; strong itching all over the body, 500 μg/gr cream a number of times): immediate relief from itching, which ceased | clinical outcome ([2]; strong itching in lower limbs, 500 μg/gr cream as needed): immediate relief | clinical outcome ([3]; 3 subjects, 50 μg/gr cream): found to be therapeutic both for the itching and for the healing | clinical outcome ([3]; two males and four females, 30-57 years old, (500 μg/gr cream) as needed): an immediate relief from the itching sensation was felt | clinical outcome [4]: the redness and swelling decreased, and the lesions healed | clinical outcome ([5]; person one very sensitive to flea bites, 50 μg/gr cream): almost immediate cessation of the itching sensation | clinical outcome ([5]; person two, 50 μg/gr cream several times to bite location): immediate cessation of the itching sensation | clinical outcome [6, 11]: a decrease in the skin redness and the degree of the swelling and itching | time to improvement in the rash [6, 11]: 2 to 10 min | clinical outcome ([6]; lesions with skin edema on mid back, applied 4-5 times): reduced skin edema and an increase in the intervals between attacks. Decrease in the skin rash and the degree of the sore and swelling and a shortening of the time of recovery (healing) | clinical outcome ([7]; person four): the swelling shrunk and the redness decreased to an identical degree on each hand | clinical outcome ([7]; person three): the swelling shrunk and the redness decreased to an identical degree on each hand | clinical outcome ([8]; 7 subjects, 50 μg/gr cream): found to be therapeutic | clinical outcome as compared to treatment with Zovirax® ([8]; person four, 50 μg/gr cream several times): Rapid drying of the lesion, shrinking of swelling and swift conclusion of the outbreak | recuperation period ([8]; person, festering lesion, generally 10 days required, 500 μg/gr cream as needed): shortened by half | clinical outcome [8, 12]: the lesions now appear only infrequently | number of applications that cause the lesions to disappear [8, 12]: 1-2 applications | clinical outcome ([8]; person, lips with blisters, 500 μg/gr cream as needed): immediate relief; the blisters stopped developing and disappeared after several hours | clinical outcome [8, 13]: felt relief after several minutes. The itching and redness lessened immediately | time until wound disappeared [8, 13]: 36 h | clinical outcome [8, 14]: The lesions disappeared and did not return during the last 5 years | time to relief in itching and skin rash [8, 14]: 10 to 20 min | clinical outcome ([8]; person, pricking sensation on upper lip, 500 μg/gr cream as needed): the pricking sensation ceased and Herpes lesions did not develop | clinical outcome [9, 15]: shortening the time of recovery (healing) | time to decrease in the skin rash and the degree of the sore and swelling [9, 15]: 10 to 20 min | time until no sign of the disease [9, 15]: 10 days | time to improvement and relief ([9]; initial application to the hand): ≤ 24 h | clinical outcome [10]: felt immediate relief

Source: US9012397B2 (priority 2011, dated 2015)
